Structures can show the parent of a compound that is named as a salt.
How the values were obtained:
HCT116 [1] = assay: viability inhibition vs untreated; higher = more cytotoxic; conditions: 72 h
HCT116 [2] = conditions: 72 h
Experimental: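 HCT116 control and MTA1-KO (CRISPR) HCT116 cells were seeded in 384-well plates (800 cells/well), treated 16 h later with 237 metabolism-related anticancer drugs at five doses (10 uM, 2 uM, 400 nM, 80 nM, 16 nM) for 72 h, two replicates; viability by CCK8. Values are % inhibition of viability relative to untreated cells, plus fitted IC50.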

SMILES	viability inhibition (HCT116 [1]; genotype: MTA1-KO, 16 nM)	viability inhibition (HCT116 [1]; genotype: MTA1-KO, 80 nM)	viability inhibition (HCT116 [1]; genotype: MTA1-KO, 400 nM)	viability inhibition (HCT116 [1]; genotype: MTA1-KO, 2000 nM)	viability inhibition (HCT116 [1]; genotype: MTA1-KO, 10000 nM)	viability inhibition (HCT116 [1]; genotype: control, 16 nM)	viability inhibition (HCT116 [1]; genotype: control, 80 nM)	viability inhibition (HCT116 [1]; genotype: control, 400 nM)	viability inhibition (HCT116 [1]; genotype: control, 2000 nM)	viability inhibition (HCT116 [1]; genotype: control, 10000 nM)	IC50 (HCT116 [2]; genotype: MTA1-KO)	IC50 (HCT116 [2]; genotype: control)
Nc1ncnc2c1ncn2[C@@H]1O[C@H](COP(=O)(O)O)[C@@H](O)[C@H]1O [Adenosine 5'-monophosphate]	1.56%	3.02%	2%	-3.03%	4.43%	9.4%	14.9%	9.53%	10.4%	17.4%	> 10 µM	> 10 µM
NCCCCN=C(N)N [Agmatine sulfate salt]	-2.78%	3.53%	1.54%	7.76%	55.4%	11.2%	9.12%	22.6%	28.6%	22.5%	8.87 µM	> 10 µM
NN=C(N)N [Aminoguanidine hydrochloride]	-22%	-27.7%	-23.9%	-10.8%	-13.7%	-13.6%	-11.1%	-12.3%	-13.1%	-5.39%	> 10 µM	> 10 µM
O=C1c2cccc(O)c2C(=O)c2c(O)cccc21 [Antrapurol]	7.43%	-5.62%	-8.24%	-0.432%	0.85%	1.11%	-7.37%	-11.3%	-10.5%	29.6%	> 10 µM	> 10 µM
O=c1cc(-c2ccc(O)cc2)oc2cc(O)cc(O)c12 [Apigenin]	-5.33%	-2.46%	-0.547%	-8.58%	12.7%	20.8%	0.478%	4.05%	4.56%	44.8%	> 10 µM	> 10 µM
Cc1c(CN2CCN(C(=O)[C@H](C)O)CC2)sc2c(N3CCOCC3)nc(-c3cnc(N)nc3)nc12 [Apitolisib]	-11.5%	2.04%	38.8%	65.3%	82.6%	0.365%	0.791%	60.6%	70.1%	80.4%	0.471 µM	0.268 µM
CC(C)c1c(C(=O)Nc2ccccc2)c(-c2ccccc2)c(-c2ccc(F)cc2)n1CC[C@@H](O)C[C@@H](O)CC(=O)O [Atorvastatin Calcium]	-2.27%	-15.2%	-21.3%	-22.7%	-6.12%	6.18%	-8.85%	-7.43%	-3.65%	17%	> 10 µM	> 10 µM
Cc1c(NC(=O)c2cc(C(N)=O)nc3cc(F)ccc23)c(C(F)(F)F)nn1Cc1ccc(C#N)cc1 [BAY876]	50.2%	73%	82%	90.4%	110%	72.8%	89.8%	97.7%	103%	102%	< 0.016 µM	< 0.016 µM
Cc1cc(-c2nc(-c3ccc(OC(F)(F)F)cc3)no2)nn1Cc1ccnc(N2CCN(C3CC3)CC2)c1 [BAY 87-2243]	21%	24.5%	21.4%	19.2%	19.2%	86.8%	72.7%	68.2%	67.4%	70.2%	> 10 µM	< 0.016 µM
N[C@@H](CSCCB(O)O)C(=O)O [BEC HCl]	7.68%	-6.82%	-3.32%	5.74%	56.8%	-17.3%	-19%	-3.82%	-14%	-7.11%	8.12 µM	> 10 µM
COc1ccc(-c2ccc3ncc4c(c3c2)n(-c2ccc(N3CCNCC3)c(C(F)(F)F)c2)c(=O)n4C)cn1 [BGT226]	3.91%	56.3%	83%	97.4%	106%	-4.27%	60.1%	90.7%	99%	116%	0.0773 µM	0.0713 µM
O=C(Cc1ccccc1)Nc1nnc(CCSCCc2nnc(NC(=O)Cc3ccccc3)s2)s1 [BPTES]	-12.8%	-12.2%	0.728%	8.71%	41.5%	-3.88%	-3.14%	-1.6%	-0.809%	-19.2%	> 10 µM	> 10 µM
C/C(=C1/C(=O)Nc2ccc(NC(N)=O)cc21)c1ccc[nH]1 [BX517]	-1.27%	-4.96%	-15%	-7.43%	62.3%	7.33%	-2.63%	0.244%	10.4%	67.6%	7.24 µM	6.88 µM
O=C(NCCCNc1nc(Nc2cccc(NC(=O)N3CCCC3)c2)ncc1I)c1cccs1 [BX795]	-13.8%	-8.82%	-26.4%	-9.81%	-6.85%	-1.4%	-15%	-1.64%	18.7%	7.91%	> 10 µM	> 10 µM
O=C(Nc1cccc(Nc2ncc(Br)c(NCCc3cnc[nH]3)n2)c1)N1CCCC1 [BX912]	-9.54%	7.13%	22.8%	64.5%	92.4%	-0.895%	-7.72%	13.9%	47.2%	75.2%	1.27 µM	1.5 µM
CC1(C)CC[C@]2(C(=O)O)CC[C@]3(C)[C@H](C(=O)C=C4[C@@]5(C)C=C(C#N)C(=O)C(C)(C)[C@@H]5CC[C@]43C)[C@@H]2C1 [Bardoxolone]	6.64%	-8.28%	-9%	44.1%	103%	-7.41%	-6.83%	-2.5%	40.7%	103%	3.04 µM	2.54 µM
NS(=O)(=O)c1cc2c(cc1C(F)(F)F)NC(Cc1ccccc1)NS2(=O)=O (centres undefined) [Bendroflumethiazide]	-4.82%	-2.33%	-5.2%	-12.6%	-13.6%	0.542%	-1.18%	-14.6%	4.49%	-9.53%	> 10 µM	> 10 µM
NS(=O)(=O)c1ccccc1 [Benzenesulfonamide]	3.96%	-4.26%	4.06%	12.2%	54.7%	7.65%	12.9%	10.8%	25.5%	55.6%	9.29 µM	8.77 µM
NS(=O)(=O)c1cc2c(cc1Cl)NC(CSCc1ccccc1)=NS2(=O)=O [Benzthiazide]	-4.89%	-8.13%	-6.12%	-11.1%	36.1%	-2.68%	0.658%	-1.2%	7.85%	44.8%	> 10 µM	> 10 µM

SMILES	viability inhibition (HCT116 [1]; genotype: MTA1-KO, 16 nM)	viability inhibition (HCT116 [1]; genotype: MTA1-KO, 80 nM)	viability inhibition (HCT116 [1]; genotype: MTA1-KO, 400 nM)	viability inhibition (HCT116 [1]; genotype: MTA1-KO, 2000 nM)	viability inhibition (HCT116 [1]; genotype: MTA1-KO, 10000 nM)	viability inhibition (HCT116 [1]; genotype: control, 16 nM)	viability inhibition (HCT116 [1]; genotype: control, 80 nM)	viability inhibition (HCT116 [1]; genotype: control, 400 nM)	viability inhibition (HCT116 [1]; genotype: control, 2000 nM)	viability inhibition (HCT116 [1]; genotype: control, 10000 nM)	IC50 (HCT116 [2]; genotype: MTA1-KO)	IC50 (HCT116 [2]; genotype: control)
c1ccc(-c2ccc(C(c3ccccc3)n3ccnc3)cc2)cc1 (centres undefined) [Bifonazole]	-14.7%	-10.9%	-14.8%	-16.2%	16.8%	7.85%	-6.02%	-12.2%	-12%	18.9%	> 10 µM	> 10 µM
C[C@H]1CCC/C=C/[C@@H]2C[C@H](O)C[C@H]2[C@H](O)/C=C/C(=O)O1 [Brefeldin A]	-15.6%	-20.1%	104%	105%	105%	4.87%	-4.17%	112%	109%	110%	0.255 µM	0.166 µM
CCN[C@H]1CN(CCCOC)S(=O)(=O)c2sc(S(N)(=O)=O)cc21 [Brinzolamide]	-13.1%	-25.7%	-24.4%	-29.9%	-25.2%	-12.4%	-11.9%	-8.93%	-15.3%	-13.6%	> 10 µM	> 10 µM
C[C@]12CC[C@H](O)C[C@H]1CC[C@@H]1[C@@H]2CC[C@]2(C)[C@@H](c3ccc(=O)oc3)CC[C@]12O [Bufalin]	15.4%	39%	58.6%	83.8%	91%	65.7%	67.6%	69.3%	77.6%	80.9%	0.143 µM	< 0.016 µM
O=C(Cc1cccc(OC(F)(F)F)c1)Nc1ccc(CCCCc2nnc(NC(=O)Cc3ccccn3)s2)nn1 [CB839]	-4.17%	2.28%	-14.1%	1.81%	3.54%	0.501%	13.6%	24%	20.5%	20.2%	> 10 µM	> 10 µM
CC(=O)c1ccc2c(c1)c1cc(C(C)=O)ccc1n2CCNC(C)C [CBL0137 hydrochloride]	-9.26%	-16.6%	65.6%	114%	109%	7.74%	-9.1%	81.5%	108%	103%	0.379 µM	0.355 µM
CCN1C(=O)CNc2ncc(-c3ccc(-c4ncn[nH]4)nc3C)nc21 [CC115]	5.59%	-19.9%	-8.79%	27.2%	81.2%	-13.9%	-10.3%	-8.79%	7.12%	74.9%	2.13 µM	4.96 µM
COC1CCC(N2C(=O)CNc3ncc(-c4ccc(C(C)(C)O)nc4)nc32)CC1 (centres undefined) [CC223]	-8.46%	-17.5%	-1.64%	13.1%	22.1%	11.3%	-6.69%	-3.2%	-6.07%	35.3%	> 10 µM	> 10 µM
O=C(O)c1ccc(C=C2SC(=S)N(c3cccc(C(F)(F)F)c3)C2=O)cc1 [CFTRinh172]	-5.28%	-12.6%	-0.878%	-4.39%	25.2%	-6.21%	-18.3%	-11.9%	16%	64.3%	> 10 µM	5.31 µM
N#CNC(=NCCCCCCOc1ccc(Cl)cc1)Nc1ccncc1 [CHS 828]	-0.922%	-1.84%	18.8%	41.1%	49%	-11.1%	18.5%	30.7%	59.8%	79.4%	0.535 µM	1.85 µM
S=C(N/N=C1/CCCc2cccnc21)N1CCN(c2ccccn2)CC1 [COTI2]	5.92%	0.177%	50.3%	49.7%	67.4%	8.87%	-13.6%	-3.5%	87.4%	88.4%	0.246 µM	1.07 µM
O=C(O)CCCCC(CCSCc1ccccc1)SCc1ccccc1 (centres undefined) [CPI613]	-15.7%	-15.1%	-22.2%	-25.4%	-7.62%	7.59%	-3.09%	-6.23%	-6.02%	8.56%	> 10 µM	> 10 µM
CCNC(=O)Nc1ccc(-c2nc(N3CCOC[C@@H]3C)c3c(n2)C(C)(C)S(=O)(=O)C3)cc1 [CZ415]	-6.27%	-12.8%	23.6%	61.9%	75.6%	-5.97%	12.9%	20.8%	61.7%	60.1%	0.501 µM	0.552 µM
CC(C)c1ccc(C(=O)N=C(N)N)cc1S(C)(=O)=O [Cariporide]	-28.1%	-33.2%	-32%	-35.2%	-20.9%	19.4%	-4.81%	-9.25%	-4.56%	22.7%	> 10 µM	> 10 µM
CC1(C)CC[C@]2(C(=O)O[C@@H]3O[C@H](CO)[C@@H](O)[C@H](O)[C@H]3O)CC[C@]3(C)C(=CC[C@@H]4[C@@]5(C)CC[C@H](O[C@@H]6O[C@H](C(=O)O)[C@@H](O)[C@H](O)[C@H]6O)C(C)(C)[C@@H]5CC[C@]43C)[C@@H]2C1 [Chikusetsusaponin IVa]	-3.21%	-3.77%	-2.17%	-0.406%	19.3%	-1.39%	-7.09%	-12.1%	-11.2%	3.05%	> 10 µM	> 10 µM
NS(=O)(=O)c1cc2c(cc1Cl)NC=NS2(=O)=O [Chlorothiazide]	-10.2%	-0.674%	-4.5%	-3.61%	-8.39%	3.92%	0.542%	0.606%	-0.861%	5.64%	> 10 µM	> 10 µM
Cc1cc(C2CCCCC2)n(O)c(=O)c1 [Ciclopirox ethanolamine]	-18%	-22.5%	-14.4%	-5.78%	54.5%	-10.2%	5.38%	5.2%	46.4%	91.6%	7.38 µM	1.88 µM
Cc1cc(C2CCCCC2)n(O)c(=O)c1 [Ciclopirox]	-13.6%	8.1%	-8.33%	25.7%	64.7%	9.52%	6.31%	24%	77%	113%	4.96 µM	1.02 µM

Source: the supplement of paper PMC10477900
